Measurements: patent US20190175744A1, “INSULIN-INCRETIN CONJUGATES” (Merck Sharp & Dohme Corp., priority 2016, published 2019)
Read-outs that look alike come from different tables or passages of the source. Non-standard residues stand in square brackets, D forms with d. Residues, ends and D or L forms follow the SMILES beside them. Lys(N3) = [N-]=[N+]=NCCCC[C@H](N)C(=O)O; Aib = CC(C)(N)C(=O)O

What was measured:
[1] = biological target: T1, human GCGR (Homo sapiens, UniProt P47871); experiment: cAMP activity assay, cells expressing human GCGR; assay type: cell-based; conditions: for GCGR/GLP1R ratio: Table 5, ratio of hGCGR EC50 to hGLP1R EC50;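 for all read-outs here: cAMP production read by luminescence after one hour of peptide exposure at room temperature, EC50 from logistic curve fit, native glucagon and GLP-1 as control peptides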
T1 construct: expressed in transfected cells; grown with Blasticidin and Hygromycin
T1 sequence (P47871 26-477): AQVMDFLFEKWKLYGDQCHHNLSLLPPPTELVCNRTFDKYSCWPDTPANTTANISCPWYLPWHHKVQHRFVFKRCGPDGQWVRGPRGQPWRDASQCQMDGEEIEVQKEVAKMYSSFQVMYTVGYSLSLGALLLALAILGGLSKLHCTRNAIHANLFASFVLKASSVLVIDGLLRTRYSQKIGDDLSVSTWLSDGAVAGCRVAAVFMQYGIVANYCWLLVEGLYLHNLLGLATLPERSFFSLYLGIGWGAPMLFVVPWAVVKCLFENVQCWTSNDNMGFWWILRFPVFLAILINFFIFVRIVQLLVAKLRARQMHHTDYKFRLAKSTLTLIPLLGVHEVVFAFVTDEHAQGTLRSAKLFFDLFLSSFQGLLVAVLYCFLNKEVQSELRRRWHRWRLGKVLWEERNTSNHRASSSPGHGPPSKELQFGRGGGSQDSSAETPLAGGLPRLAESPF
Procedure: Activity of the incretin peptides or the conjugates at the Glucagon receptor (GCGR) and GLP-1 receptor (GLP1R) may be measured in a cAMP activity assay as follows.
Peptides are dissolved in 100% DMSO and serially diluted to generate 10 point titrations. The peptide solutions are then transferred into 384-well assay plates (150 nL/well). Assay ready frozen cells expressing human GLP1R or human GCGR are suspended in growth media consisting of DMEM medium (GIBCO), 10% FBS (GIBCO), 1×NEAA(GIBCO), 1×P/S (GIBCO), 10 μg/mL Blasticidin (GIBCO) and 200 μg/mL Hygromycin (GIBCO). […] The cell suspensions (15 μL) are then added to the assay plates containing the peptide solutions (30,000 cells/well for human GCGR; 10,000 cells/well for human GLP1R). The cells are incubated for one hour at room temperature in the dark.
Production of cAMP may be determined using HitHunterr cAMPXS kits (DiscoverX) following the manufacturer's protocol. The plates are incubated for overnight at room temperature in the dark. Luminescence may be measured using an EnVision Multilabel plate reader (Perkin Elmer). Native GLP-1 and Glucagon (Bachem) may be used as control peptides. EC50 values may be calculated using uses a 4 parameter logistic fit based on the Levenberg-Marquardt algorithm.

[2] = biological target: human GLP1R (Homo sapiens, UniProt P43220); experiment: cAMP activity assay, cells expressing human GLP1R; assay type: cell-based
Chain of human GLP1R (P43220 24-463): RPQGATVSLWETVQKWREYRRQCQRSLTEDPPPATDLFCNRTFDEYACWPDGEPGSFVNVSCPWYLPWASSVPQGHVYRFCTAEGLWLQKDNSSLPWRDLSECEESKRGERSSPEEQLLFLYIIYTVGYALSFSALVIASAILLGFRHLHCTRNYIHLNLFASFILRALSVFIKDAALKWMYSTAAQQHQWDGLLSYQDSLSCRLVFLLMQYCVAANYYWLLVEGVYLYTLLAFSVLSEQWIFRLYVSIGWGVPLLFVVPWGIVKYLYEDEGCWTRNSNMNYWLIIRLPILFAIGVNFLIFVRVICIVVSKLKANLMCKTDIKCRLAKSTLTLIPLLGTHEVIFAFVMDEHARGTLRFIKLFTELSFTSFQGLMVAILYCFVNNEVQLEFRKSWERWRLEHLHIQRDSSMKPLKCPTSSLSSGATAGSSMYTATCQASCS

Row | SMILES | EC50 ([1]; Table 5, incretin peptides, cAMP, read-out: hGCGR_EC50) | GCGR/GLP1R ratio [1] | EC50 ([2]; Table 5, incretin peptides, cAMP, read-out: hGLP1R EC50) | EC50 [1] | EC50 [2]
1 | CSCC[C@H](NC(=O)[C@H](CC(C)C)NC(=O)[C@H](Cc1c[nH]c2ccccc12)NC(=O)[C@H](CCCCN=[N+]=[N-])NC(=O)[C@@H](NC(=O)[C@H](Cc1ccccc1)NC(=O)[C@H](CC(=O)O)NC(=O)[C@H](CCC(N)=O)NC(=O)[C@H](C)NC(=O)[C@H](C)NC(=O)[C@H](CCCNC(=N)N)NC(=O)C(C)(C)NC(=O)[C@H](CC(=O)O)NC(=O)[C@H](CC(C)C)NC(=O)[C@H](Cc1ccc(O)cc1)NC(=O)[C@H](CCCCN)NC(=O)[C@H](CO)NC(=O)[C@H](CCCCN)NC(=O)[C@H](CC(=O)O)NC(=O)[C@H](CO)NC(=O)[C@@H](NC(=O)[C@H](Cc1ccccc1)NC(=O)[C@@H](NC(=O)CNC(=O)[C@H](CCC(N)=O)NC(=O)C(C)(C)NC(=O)[C@@H](N)Cc1c[nH]cn1)[C@@H](C)O)[C@@H](C)O)C(C)C)C(=O)N[C@@H](CC(N)=O)C(=O)N[C@H](C(=O)N[C@@H](CCCCN)C(=O)N[C@@H](CCC(N)=O)C(=O)O)[C@@H](C)O [PEP68] (H-H[Aib]QGTFTSDKSKYLD[Aib]RAAQDFV[Lys(N3)]WLMNTKQ-OH; N-terminus assumed) | 2.7 nM | 38.6 | 0.07 nM | – | –
2 | CCCCCCCCCCCCCCCC(=O)N[C@@H](CCC(=O)N[C@@H](CCC(=O)NCCCC[C@H](NC(=O)[C@H](CC(=O)O)NC(=O)[C@H](CO)NC(=O)[C@@H](NC(=O)[C@H](Cc1ccccc1)NC(=O)[C@@H](NC(=O)CNC(=O)[C@H](CCC(N)=O)NC(=O)C(C)(C)NC(=O)[C@@H](N)Cc1c[nH]cn1)[C@@H](C)O)[C@@H](C)O)C(=O)N[C@@H](CO)C(=O)N[C@@H](CCCCN)C(=O)N[C@@H](Cc1ccc(O)cc1)C(=O)N[C@@H](CC(C)C)C(=O)N[C@@H](CC(=O)O)C(=O)NC(C)(C)C(=O)N[C@@H](CCCNC(=N)N)C(=O)N[C@@H](C)C(=O)N[C@@H](C)C(=O)N[C@@H](CCC(N)=O)C(=O)N[C@@H](CC(=O)O)C(=O)N[C@@H](Cc1ccccc1)C(=O)N[C@H](C(=O)N[C@@H](CCCCN=[N+]=[N-])C(=O)N[C@@H](Cc1c[nH]c2ccccc12)C(=O)N[C@@H](CC(C)C)C(=O)N[C@@H](CCS(C)(=O)=O)C(=O)N[C@@H](CC(=O)O)C(=O)N[C@H](C(N)=O)[C@@H](C)O)C(C)C)C(=O)O)C(=O)O [PEP10] | – | 0.7 | – | 0.02 nM | 0.03 nM
3 | CC(C)C[C@H](NC(=O)[C@H](Cc1ccc(O)cc1)NC(=O)[C@H](CCCCN)NC(=O)[C@H](CO)NC(=O)[C@H](Cc1ccc(O)cc1)NC(=O)[C@H](CC(=O)O)NC(=O)[C@H](CO)NC(=O)[C@@H](NC(=O)[C@H](Cc1ccccc1)NC(=O)[C@@H](NC(=O)CNC(=O)[C@H](CCC(N)=O)NC(=O)[C@@H](CO)NC(=O)[C@@H](N)Cc1c[nH]cn1)[C@@H](C)O)[C@@H](C)O)C(=O)N[C@@H](CC(=O)O)C(=O)N[C@@H](CCC(=O)O)C(=O)N[C@@H](CCCNC(=N)N)C(=O)N[C@@H](C)C(=O)N[C@@H](C)C(=O)N[C@@H](CCC(N)=O)C(=O)N[C@@H](CCCCNC(=O)COCCOCCNC(=O)COCCOCCNC(=O)CC[C@H](NC(=O)CCCCCCCCCCCCCCCN=[N+]=[N-])C(=O)O)C(=O)N[C@@H](Cc1ccccc1)C(=O)N[C@H](C(=O)N[C@@H](CCC(N)=O)C(=O)N[C@@H](Cc1c[nH]c2ccccc12)C(=O)N[C@@H](CC(C)C)C(=O)N[C@@H](CC(C)C)C(=O)N[C@@H](CC(=O)O)C(=O)N[C@H](C(N)=O)[C@@H](C)O)C(C)C [PEP27] | – | 6.5 | – | 0.39 nM | 0.06 nM
